Values of other authors as cited in publication PMC7904743, “WIDOCK: a reactive docking protocol for virtual screening of covalent inhibitors” (Journal of Computer-Aided Molecular Design, 2021).
Where two headings read alike, the source gives them in different places.

Legend:
OTUB2 = conditions: experimental actives if % labeling higher than 50%; cited from earlier work
NUDT7 = conditions: protein labeling at 200 μM; experimental actives if % labeling higher than 50%; cited from earlier work
[1] = thiol reactivity, cited from earlier work
[2] = natural log of average rate constant k
[3] = natural logarithm of average rate constant

Compound	OTUB2 % labeling (OTUB2) [%]	NUDT7 % labeling (NUDT7) [%]	ln(avg k) [1, 2]	ln(avg k) [1, 3]
COc1ccc2c(c1)CCCN2C(=O)CCl [PCM-0102325, COc1ccc2c(c1)CCCN2C(=O)CCl]	0	12	-15.257	-15.257
O=C(CCl)N1CCN(S(=O)(=O)c2cccc(F)c2)CC1 [PCM-0102327, O=C(CCl)N1CCN(S(=O)(=O)c2cccc(F)c2)CC1]	0	13	-15.130	-15.130
O=C(CCl)Nc1ccc(F)c(F)c1 [PCM-0102328, O=C(CCl)Nc1ccc(F)c(F)c1]	31	0	-15.726	-15.726
COc1ccc2nc(NC(=O)CCl)sc2c1 [PCM-0102330, COc1ccc2nc(NC(=O)CCl)sc2c1]	0	100	-15.593	-15.593
O=C(CCl)Nc1cc2c(cc1Cl)OCCCO2 [PCM-0102331, O=C(CCl)Nc1cc2c(cc1Cl)OCCCO2]	26	36	-16.178	-16.178
CC1CCCC(NC(=O)NC(=O)CCl)C1C (stereo not drawn) [PCM-0102332, CC1CCCC(NC(=O)NC(=O)CCl)C1C]	0	0	-15.913	-15.913
O=C(CCl)NC(=O)Nc1ccc2c(c1)OCO2 [PCM-0102333, O=C(CCl)NC(=O)Nc1ccc2c(c1)OCO2]	53	29	-15.968	-15.968
CC(NC(=O)CCl)c1ccc(Cl)cc1 (stereo not drawn) [PCM-0102334, CC(NC(=O)CCl)c1ccc(Cl)cc1]	25	0	-16.367	-16.367
CS(=O)(=O)c1ccc(NC(=O)CCl)cc1 [PCM-0102335, CS(=O)(=O)c1ccc(NC(=O)CCl)cc1]	30	6	-15.005	-15.005
O=C(CCl)Nc1ccnn1C1CCCC1 [PCM-0102336, O=C(CCl)Nc1ccnn1C1CCCC1]	19	0	-15.629	-15.629
Cc1oc(NC(=O)CCl)c(C#N)c1C [PCM-0102337, Cc1oc(NC(=O)CCl)c(C#N)c1C]	45	0	-15.944	-15.944
Cc1ccc(NC(=O)CCl)cc1C [PCM-0102339, Cc1ccc(NC(=O)CCl)cc1C]	82	18	-15.536	-15.536
Cc1cccc(CN2CCN(C(=O)CCl)CC2)c1 [PCM-0102340, Cc1cccc(CN2CCN(C(=O)CCl)CC2)c1]	17	0	-15.593	-15.593
N#CC(c1ccc(F)cc1)N1CCN(C(=O)CCl)CC1 (stereo not drawn) [PCM-0102341, N#CC(c1ccc(F)cc1)N1CCN(C(=O)CCl)CC1]	0	0	-14.949	-14.949
CC(NC(=O)CCl)c1ccc2c(c1)OCCO2 (stereo not drawn) [PCM-0102342, CC(NC(=O)CCl)c1ccc2c(c1)OCCO2]	57	8	-16.412	-16.412
O=C(CCl)N1CCN(S(=O)(=O)c2ccc(F)c(Cl)c2)CC1 [PCM-0102343, O=C(CCl)N1CCN(S(=O)(=O)c2ccc(F)c(Cl)c2)CC1]	0	12	-15.080	-15.080
CN(Cc1ccc(Cl)cc1)C(=O)CCl [PCM-0102344, CN(Cc1ccc(Cl)cc1)C(=O)CCl]	0	34	-15.486	-15.486
CN(C)C(=O)c1cccc(NC(=O)CCl)c1 [PCM-0102345, CN(C)C(=O)c1cccc(NC(=O)CCl)c1]	0	10	-15.488	-15.488
O=C(CCl)N1CCN(CC(=O)N2CCCC2)CC1 [PCM-0102346, O=C(CCl)N1CCN(CC(=O)N2CCCC2)CC1]	0	0	-16.189	-16.189
CC(C)(C)c1cc(NC(=O)CCl)on1 [PCM-0102348, CC(C)(C)c1cc(NC(=O)CCl)on1]	0	0	-15.607	-15.607
CN(Cc1ccc(Cl)c(Cl)c1)C(=O)CCl [PCM-0102349, CN(Cc1ccc(Cl)c(Cl)c1)C(=O)CCl]	0	59	-15.496	-15.496

Compound	OTUB2 % labeling (OTUB2) [%]	NUDT7 % labeling (NUDT7) [%]	ln(avg k) [1, 2]	ln(avg k) [1, 3]
CC(NC(=O)CCl)c1ccc2ccccc2c1 (stereo not drawn) [PCM-0102350, CC(NC(=O)CCl)c1ccc2ccccc2c1]	47	31	-16.423	-16.423
Cc1cc(C)c(NC(=O)CCl)c(C)c1 [PCM-0102352, Cc1cc(C)c(NC(=O)CCl)c(C)c1]	0	0	-17.111	-17.111
Cc1ccc(C)c(S(=O)(=O)N2CCN(C(=O)CCl)CC2)c1 [PCM-0102353, Cc1ccc(C)c(S(=O)(=O)N2CCN(C(=O)CCl)CC2)c1]	6	19	-15.325	-15.325
Cc1ccc(Cl)cc1NC(=O)CCl [PCM-0102354, Cc1ccc(Cl)cc1NC(=O)CCl]	0	0	-16.394	-16.394
CC(C)(C)c1ccc(C(=O)NNC(=O)CCl)cc1 [PCM-0102355, CC(C)(C)c1ccc(C(=O)NNC(=O)CCl)cc1]	66	0	-17.324	-17.324
O=C(CCl)NCC1CCCO1 (stereo not drawn) [PCM-0102356, O=C(CCl)NCC1CCCO1]	5	0	-16.672	-16.672
O=C(CCl)N1CCN(c2ccc(O)cc2)CC1 [PCM-0102357, O=C(CCl)N1CCN(c2ccc(O)cc2)CC1]	0	0	-15.487	-15.487
Cc1cccc(C(C)C)c1NC(=O)CCl [PCM-0102358, Cc1cccc(C(C)C)c1NC(=O)CCl]	0	0	-16.961	-16.961
O=C(CCl)NC(=O)NC12CC3CC(CC(C3)C1)C2 [PCM-0102360, O=C(CCl)NC(=O)NC12CC3CC(CC(C3)C1)C2]	12	0	-16.068	-16.068
O=C(CCl)N1CCN(S(=O)(=O)c2ccc(F)c(F)c2)CC1 [PCM-0102361, O=C(CCl)N1CCN(S(=O)(=O)c2ccc(F)c(F)c2)CC1]	0	0	-15.093	-15.093
O=C1CN(C(=O)CCl)c2ccccc2N1 [PCM-0102362, O=C1CN(C(=O)CCl)c2ccccc2N1]	0	0	-15.567	-15.567
O=C1CC(C(F)(F)F)N(C(=O)CCl)c2ccccc2N1 (stereo not drawn) [PCM-0102363, O=C1CC(C(F)(F)F)N(C(=O)CCl)c2ccccc2N1]	0	28	-15.654	-15.654
O=C(CCl)Nc1cccc(F)c1 [PCM-0102364, O=C(CCl)Nc1cccc(F)c1]	0	9	-15.960	-15.960
CN(C)C(=O)CNC(=O)CCl [PCM-0102365, CN(C)C(=O)CNC(=O)CCl]	0	0	-17.142	-17.142
O=C(CCl)Nc1cc([N+](=O)[O-])ccc1Cl [PCM-0102366, O=C(CCl)Nc1cc([N+](=O)[O-])ccc1Cl]	27	20	-15.888	-15.888
COC(=O)c1sccc1NC(=O)CCl [PCM-0102367, COC(=O)c1sccc1NC(=O)CCl]	0	12	-15.715	-15.715
CN(C(=O)CCl)c1ccccc1 [PCM-0102368, CN(C(=O)CCl)c1ccccc1]	0	0	-15.648	-15.648
CCc1ccccc1NC(=O)CCl [PCM-0102369, CCc1ccccc1NC(=O)CCl]	0	0	-16.517	-16.517
COc1ccc(Cl)cc1NC(=O)CCl [PCM-0102370, COc1ccc(Cl)cc1NC(=O)CCl]	18	23	-15.854	-15.854
O=C(CCl)N(c1ccccc1)C1C=CS(=O)(=O)C1 (stereo not drawn) [PCM-0102372, O=C(CCl)N(c1ccccc1)C1C=CS(=O)(=O)C1]	0	28	-15.071	-15.071
O=C(CCl)N1CCN(c2ccccc2F)CC1 [PCM-0102373, O=C(CCl)N1CCN(c2ccccc2F)CC1]	0	0	-15.871	-15.871
